# Results from US20150105252A1, “SUBSTITUTED PYRAZOLES AS HERBICIDES” (E I DU PONT DE NEMOURS AND COMPANY, priority 2013, published 2015).
# Columns and labels:
# velvetleaf [1] = assay: Test A preemergence; assay type: in vivo, Abutilon theophrasti; details: preemergence; for Velvetleaf plant response rating (0 to 100 scale): 125 g ai/ha, visual injury approx. 10 days after treatment
# How it was run: (§1)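 After sowing in a sand–loam mix, pots received compound preemergence by directed soil spray, or postemergence once plants reached the one- to two-leaf stage (2–10 cm). Formulation contained surfactant in a non-phytotoxic solvent. Injury was scored visually after ~10 greenhouse days, 0–100 scale.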
# barnyardgrass [2] = assay: Test B flood; assay type: in vivo, Echinochloa crus-galli; details: 250 g ai/ha, visual rating on 0 to 100 scale (0 no effect, 100 complete control), 13 to 15 days
# How it was run: (§2)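 Flooded-pot test: compound dosed into 3 cm of standing water above soil when plants had two leaves. Visual control ratings (0–100) versus untreated plants after 13–15 d.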
# foxtail, giant [3] = assay: Test A postemergence; assay type: in vivo, Setaria faberii
# How it was run: as §1
# foxtail, giant [4] = assay: Test A preemergence; assay type: in vivo, Setaria faberii; details: preemergence; for Foxtail, Giant plant response rating (0 to 100 scale): 125 g ai/ha, visual injury approx. 10 days after treatment; for Foxtail, Giant plant response rating: 500 g ai/ha, visual injury after approx. 10 days, 0 to 100 scale (0 no effect, 100 complete control)
# How it was run: as §1
# pigweed [5] = assay: Test A preemergence; assay type: in vivo, Amaranthus retroflexus; details: preemergence; for Pigweed plant response rating (0 to 100 scale): 125 g ai/ha, visual injury approx. 10 days after treatment
# How it was run: as §1
# corn [6] = assay: Test A preemergence; assay type: in vivo, Zea mays; details: preemergence; for Corn plant response rating (0 to 100 scale): 125 g ai/ha, visual injury approx. 10 days after treatment; for Corn plant response rating: 500 g ai/ha, visual injury after approx. 10 days, 0 to 100 scale (0 no effect, 100 complete control)
# How it was run: as §1
# wheat [7] = assay: Test A preemergence; assay type: in vivo, Triticum aestivum; details: preemergence; for Wheat plant response rating (0 to 100 scale): 125 g ai/ha, visual injury approx. 10 days after treatment
# How it was run: as §1
# ducksalad = assay: Test B flood; assay type: in vivo, Heteranthera limosa; details: 250 g ai/ha, visual rating on 0 to 100 scale (0 no effect, 100 complete control), 13 to 15 days
# How it was run: as §2
# corn [8] = assay: Test A postemergence; assay type: in vivo, Zea mays
# How it was run: as §1
# barnyardgrass [9] = assay: Test A postemergence; assay type: in vivo, Echinochloa crus-galli
# How it was run: as §1
# sedge, umbrella = assay: Test B flood; assay type: in vivo, Cyperus difformis; details: 250 g ai/ha, visual rating on 0 to 100 scale (0 no effect, 100 complete control), 13 to 15 days
# How it was run: as §2
# rice = assay: Test B flood; assay type: in vivo, Oryza sativa; details: 250 g ai/ha, visual rating on 0 to 100 scale (0 no effect, 100 complete control), 13 to 15 days
# How it was run: as §2
# crabgrass, large [10] = assay: Test A preemergence; assay type: in vivo, Digitaria sanguinalis; details: preemergence; for Crabgrass, Large plant response rating (0 to 100 scale): 125 g ai/ha, visual injury approx. 10 days after treatment; for Crabgrass, Large plant response rating: 500 g ai/ha, visual injury after approx. 10 days, 0 to 100 scale (0 no effect, 100 complete control)
# How it was run: as §1
# wheat [11] = assay: Test A postemergence; assay type: in vivo, Triticum aestivum
# How it was run: as §1
# morningglory [12] = assay: Test A preemergence; assay type: in vivo, Ipomoea spp.; details: preemergence; for Morningglory plant response rating (0 to 100 scale): 125 g ai/ha, visual injury approx. 10 days after treatment
# How it was run: as §1
# crabgrass, large [13] = assay: Test A postemergence; assay type: in vivo, Digitaria sanguinalis
# How it was run: as §1
# morningglory [14] = assay: Test A postemergence; assay type: in vivo, Ipomoea spp.
# How it was run: as §1
# pigweed [15] = assay: Test A postemergence; assay type: in vivo, Amaranthus retroflexus
# How it was run: as §1
# velvetleaf [16] = assay: Test A postemergence; assay type: in vivo, Abutilon theophrasti
# How it was run: as §1
# barnyardgrass [17] = assay: Test A preemergence; assay type: in vivo, Echinochloa crus-galli; details: preemergence; for Barnyardgrass plant response rating (0 to 100 scale, 0 is no effect, 100 is complete control): 125 g ai/ha, visual injury approx. 10 days after treatment; for Barnyardgrass plant response rating: 500 g ai/ha, visual injury after approx. 10 days, 0 to 100 scale (0 no effect, 100 complete control)
# How it was run: as §1
# [18] = Postemergence, 125 g ai/ha, 0 to 100 scale, 0 no effect, 100 complete control
# [19] = Postemergence, 500 g ai/ha, 0 to 100 scale (0 no effect, 100 complete control)
# [20] = 500 g ai/ha, visual injury after approx. 10 days, 0 to 100 scale (0 no effect, 100 complete control)
# [21] = postemergence, 125 g ai/ha, about 10 days, visual rating on 0 to 100 scale (0 no effect, 100 complete control)
SMILES,Velvetleaf plant response rating (0 to 100 scale) (velvetleaf [1]),"Plant response rating, Barnyardgrass (barnyardgrass [2])","Foxtail, Giant plant response rating (foxtail, giant [3]; [19])","Foxtail, Giant plant response rating (0 to 100 scale) (foxtail, giant [4])","Foxtail, Giant plant response rating (foxtail, giant [4])",Pigweed plant response rating (0 to 100 scale) (pigweed [5]),Corn plant response rating (0 to 100 scale) (corn [6]),Corn plant response rating (corn [6]),Wheat plant response rating (0 to 100 scale) (wheat [7]),"Plant response rating, Ducksalad (ducksalad)",Corn plant response rating (corn [8]; [19]),Barnyardgrass plant response rating (barnyardgrass [9]; [19]),"Plant response rating, Sedge, Umbrella (sedge, umbrella)","Plant response rating, Rice (rice)","Crabgrass, Large plant response rating (0 to 100 scale) (crabgrass, large [10])","Crabgrass, Large plant response rating (crabgrass, large [10])",Wheat plant response rating (wheat [11]; [19]),Morningglory plant response rating (0 to 100 scale) (morningglory [12]),"Crabgrass, Large plant response rating (crabgrass, large [13]; [19])",Morningglory plant response rating (morningglory [14]; [19]),further results
CCCNC(=O)c1cc(CC)n(Oc2cccc(OC(F)(F)F)c2)n1 [Compound 219],0,0,60,0,20,0,0,0,0,30,20,40,75,0,40,90,10,0,70,70,"Foxtail, Giant plant response rating (foxtail, giant [3]; [18]): 20; Corn plant response rating (corn [8]; [18]): 10; Barnyardgrass plant response rating (barnyardgrass [9]; [18]): 10; Wheat plant response rating (wheat [11]; [18]): 0; Crabgrass, Large plant response rating (crabgrass, large [13]; [18]): 20; Morningglory plant response rating (morningglory [14]; [18]): 10; Pigweed plant response rating (pigweed [15]; [18]): 20; Pigweed plant response rating (pigweed [15]; [19]): 60; Velvetleaf plant response rating (velvetleaf [16]; [18]): 0; Velvetleaf plant response rating (velvetleaf [16]; [19]): 90; Barnyardgrass plant response rating (0 to 100 scale, 0 is no effect, 100 is complete control) (barnyardgrass [17]): 0; Barnyardgrass plant response rating (barnyardgrass [17]): 20"
O=C(NC1CC1)c1cc(I)n(Cc2cccc(C(F)(F)F)c2)n1 [Compound 180],0,0,30,10,90,10,0,0,0,0,0,30,0,0,30,100,0,0,30,80,"Velvetleaf plant response rating (velvetleaf [1]; [20]): 0; Foxtail, Giant plant response rating (foxtail, giant [3]; [21]): 10; Pigweed plant response rating (pigweed [5]; [20]): 100; Wheat plant response rating (wheat [7]; [20]): 0; Corn plant response rating (corn [8]; [21]): 0; Barnyardgrass plant response rating (barnyardgrass [9]; [21]): 0; Wheat plant response rating (wheat [11]; [21]): 0; Morningglory plant response rating (morningglory [12]; [20]): 0; Crabgrass, Large plant response rating (crabgrass, large [13]; [21]): 10; Morningglory plant response rating (morningglory [14]; [21]): 0; Pigweed plant response rating (pigweed [15]; [19]): 100; Pigweed plant response rating (pigweed [15]; [21]): 70; Velvetleaf plant response rating (velvetleaf [16]; [19]): 30; Velvetleaf plant response rating (velvetleaf [16]; [21]): 0; Barnyardgrass plant response rating (0 to 100 scale, 0 is no effect, 100 is complete control) (barnyardgrass [17]): 0; Barnyardgrass plant response rating (barnyardgrass [17]): 40"
